29 compounds from patent US8741899B2, “(4-chloro-2-fluoro-N-(2-fluorophenyl)-5-[(8aR)-hexahydropyrrolo-[1,2-a]pyrazin-2(1H)-ylcarbonyl]-benzenesulfonamide, and pharmaceutically acceptable salts thereof” (AbbVie Inc., priority 2009, dated 2014) can be followed below.

T1 sequence (O95180 whole entry): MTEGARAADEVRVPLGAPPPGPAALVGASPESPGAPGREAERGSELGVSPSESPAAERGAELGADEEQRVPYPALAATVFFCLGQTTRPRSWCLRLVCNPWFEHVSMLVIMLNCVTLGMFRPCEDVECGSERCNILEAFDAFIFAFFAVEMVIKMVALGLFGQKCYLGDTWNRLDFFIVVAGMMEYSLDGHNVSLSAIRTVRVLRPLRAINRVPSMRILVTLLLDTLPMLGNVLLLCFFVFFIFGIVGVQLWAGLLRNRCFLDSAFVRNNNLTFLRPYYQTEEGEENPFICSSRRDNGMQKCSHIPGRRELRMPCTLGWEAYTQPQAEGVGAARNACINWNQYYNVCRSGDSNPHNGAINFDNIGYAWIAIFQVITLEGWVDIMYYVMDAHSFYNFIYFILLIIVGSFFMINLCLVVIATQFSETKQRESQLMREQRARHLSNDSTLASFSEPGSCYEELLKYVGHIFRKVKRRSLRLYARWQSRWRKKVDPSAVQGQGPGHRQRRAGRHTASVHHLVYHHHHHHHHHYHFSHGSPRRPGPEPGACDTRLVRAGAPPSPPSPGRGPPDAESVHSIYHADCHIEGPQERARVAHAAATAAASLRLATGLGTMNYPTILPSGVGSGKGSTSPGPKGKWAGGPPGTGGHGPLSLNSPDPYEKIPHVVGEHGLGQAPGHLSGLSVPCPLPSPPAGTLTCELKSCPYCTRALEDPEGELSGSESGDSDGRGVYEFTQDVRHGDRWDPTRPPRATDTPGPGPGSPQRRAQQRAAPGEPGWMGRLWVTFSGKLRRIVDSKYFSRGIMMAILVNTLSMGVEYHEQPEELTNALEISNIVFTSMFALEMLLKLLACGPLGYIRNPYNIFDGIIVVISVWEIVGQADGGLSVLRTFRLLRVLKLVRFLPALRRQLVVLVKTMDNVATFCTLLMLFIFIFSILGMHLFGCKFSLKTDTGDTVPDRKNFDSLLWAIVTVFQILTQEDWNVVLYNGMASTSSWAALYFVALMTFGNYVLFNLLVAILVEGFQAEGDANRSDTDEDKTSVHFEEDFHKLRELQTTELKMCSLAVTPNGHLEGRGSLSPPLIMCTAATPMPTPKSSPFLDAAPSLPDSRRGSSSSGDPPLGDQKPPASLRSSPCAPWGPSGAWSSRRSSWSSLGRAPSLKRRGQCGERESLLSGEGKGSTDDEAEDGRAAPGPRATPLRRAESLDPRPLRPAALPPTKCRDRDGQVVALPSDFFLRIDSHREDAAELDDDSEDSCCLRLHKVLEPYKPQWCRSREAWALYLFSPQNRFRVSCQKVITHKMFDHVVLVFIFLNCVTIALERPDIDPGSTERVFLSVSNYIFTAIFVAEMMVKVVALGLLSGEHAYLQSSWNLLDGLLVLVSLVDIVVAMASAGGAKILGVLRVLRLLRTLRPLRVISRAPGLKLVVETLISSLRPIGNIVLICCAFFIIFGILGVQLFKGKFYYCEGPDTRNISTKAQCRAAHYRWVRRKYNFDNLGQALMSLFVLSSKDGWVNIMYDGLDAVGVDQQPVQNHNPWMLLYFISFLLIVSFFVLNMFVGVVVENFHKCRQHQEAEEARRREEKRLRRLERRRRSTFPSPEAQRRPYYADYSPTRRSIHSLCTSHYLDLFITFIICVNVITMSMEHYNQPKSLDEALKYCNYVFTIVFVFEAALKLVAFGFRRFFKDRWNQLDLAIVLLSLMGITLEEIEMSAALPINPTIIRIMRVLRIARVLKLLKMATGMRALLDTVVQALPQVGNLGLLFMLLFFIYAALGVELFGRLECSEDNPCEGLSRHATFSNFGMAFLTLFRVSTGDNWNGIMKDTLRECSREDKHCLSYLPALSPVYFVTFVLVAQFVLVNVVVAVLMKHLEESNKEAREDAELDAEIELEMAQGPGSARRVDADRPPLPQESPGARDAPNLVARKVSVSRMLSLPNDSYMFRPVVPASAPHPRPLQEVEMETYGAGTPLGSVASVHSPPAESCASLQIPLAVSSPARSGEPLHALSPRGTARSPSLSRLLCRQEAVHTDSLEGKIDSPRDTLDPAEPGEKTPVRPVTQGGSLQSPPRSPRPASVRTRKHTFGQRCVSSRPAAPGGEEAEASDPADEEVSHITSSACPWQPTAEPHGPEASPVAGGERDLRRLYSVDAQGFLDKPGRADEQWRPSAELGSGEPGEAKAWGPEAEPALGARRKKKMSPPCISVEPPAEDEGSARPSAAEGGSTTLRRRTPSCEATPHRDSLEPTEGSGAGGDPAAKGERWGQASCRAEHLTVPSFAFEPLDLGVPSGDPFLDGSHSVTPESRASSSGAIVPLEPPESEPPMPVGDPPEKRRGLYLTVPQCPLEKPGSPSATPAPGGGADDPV

The test has as its target T1, Human Cav3.2 Channels (Homo sapiens, UniProt O95180).
T1 construct: expressed in transfected cells
In words: Electrophysiologic (whole-cell patch-clamp) assessment of calcium channel activity in HEK293 cells stably expressing hCav3.2. The test is classed as cell-based. Particulars: −77 mV, geometric mean, read-out: Human Cav3.2 −77 mV IC50 (μM) GeoMean. How it is done: (i) In Vitro Methods—Electrophysiologic Assessment of Calcium Channel Activity:
Patch-clamp recordings were performed using HEK293 cells stably expressing hCav3.2. Cells were plated in T175 flasks and grown at 37° C. and under 5% CO2 to approximately 50% confluency. On the day of the experiment, cells were harvested with Detachin™ cell detachment solution (Genlantis, San Diego, Calif.) and maintained in serum-free culture medium supplemented with 25 mM HEPES up to several hours prior to experiment. Whole-cell patch-clamp recordings were obtained using extracellular saline consisting of (mM): 87.5 CsCl, 40 TEA-Cl, 5 CaCl2, 1 MgCl2, 10 HEPES, 10 glucose. The pH was adjusted to 7.2 with CsOH and the osmolarity was adjusted to approximately 310 mOsm with sucrose. Intracellular solution consisted of (mM): 112 CsCl, 27 CsF, 2 NaCl, 8.2 EGTA, 10 HEPES. Prior to an experiment 4 mM Mg2ATP was added and the pH was adjusted to 7.2 with CsOH with an osmolarity of approximately 290 mOsm. A two-pulse voltage protocol was utilized to assess compound inhibition. First, cells were held with an 8 s pre-pulse at −100 mV prior to a 160 ms test pulse to −30 mV. This was followed by an 8 s pre-pulse at approximately −75 mV prior to a […]. Increasing concentrations of antagonist were applied to individual cells in a multi-addition format with 5 minutes in each test concentration. For each cell, responses were normalized to dimethyl sulfoxide vehicle control to generate concentration-response curves.
A general note: Patch clamp records ionic current or voltage across a cell membrane.
The IC50 is the concentration that gives 50% inhibition. As for `O=C(c1cccc(S(=O)(=O)N2CCN3CCC[C@H]3C2)c1)N1CCN(C(c2ccc(F)cc2)c2ccc(F)cc2)CC1` [Example 51, (8aS)-2-{[3-({4-[bis(4-fluorophenyl)methyl]piperazin-1-yl}carbonyl)phenyl]sulfonyl}octahydropyrrolo[1,2-a]pyrazine], the 50% inhibitory concentration (IC50) was found to be 0.9 µM. The result for `O=C(c1cccc(S(=O)(=O)N2CCN3CCC[C@@H]3C2)c1)N1CCN(C(c2ccccc2)c2ccccc2)CC1` [Example 52, (8aR)-2-({3-[(4-benzhydrylpiperazin-1-yl)carbonyl]phenyl}sulfonyl)octahydropyrrolo[1,2-a]pyrazine] reads 0.6 µM; that for `O=C(NCC(c1ccccc1)c1ccccc1)c1cccc(S(=O)(=O)N2CCN3CCC[C@H]3C2)c1` [Example 53, N-(2,2-diphenylethyl)-3-[(8aS)-hexahydropyrrolo[1,2-a]pyrazin-2(1H)-ylsulfonyl]benzamide], 0.5 µM. Under `O=C(c1cccc(S(=O)(=O)N2CCN3CCC[C@H]3C2)c1)N1CCN(C(c2ccccc2)c2ccccc2)CC1` [Example 54, (8aS)-2-({3-[(4-benzhydrylpiperazin-1-yl)carbonyl]phenyl}sulfonyl)octahydropyrrolo[1,2-a]pyrazine] stands 1.2 µM; under `O=C(NCCC(c1ccccc1)c1ccccc1)c1cccc(S(=O)(=O)N2CCN3CCC[C@H]3C2)c1` [Example 55, N-(3,3-diphenylpropyl)-3-[(8aS)-hexahydropyrrolo[1,2-a]pyrazin-2(1H)-ylsulfonyl]benzamide], 1.8 µM. The result for `O=C(NCCc1ccc(F)cc1)c1cccc(S(=O)(=O)N2CCN3CCC[C@H]3C2)c1` [Example 56, N-[2-(4-fluorophenyl)ethyl]-3-[(8aS)-hexahydropyrrolo[1,2-a]pyrazin-2(1H)-ylsulfonyl]benzamide] reads 4.1 µM; that for `O=C(c1cc(S(=O)(=O)Nc2ccccc2F)c(F)cc1Cl)N1CCN2CCC[C@H]2C1` [Example 58, 4-chloro-2-fluoro-N-(2-fluorophenyl)-5-[(8aS)-hexahydropyrrolo[1,2-a]pyrazin-2(1H)-ylcarbonyl]benzenesulfonamide], 4.6 µM. In the case of `O=C(c1cc(S(=O)(=O)NCCC(c2ccccc2)c2ccccc2)c(F)cc1Cl)N1CCN2CCC[C@H]2C1` [Example 59, 4-chloro-N-(3,3-diphenylpropyl)-2-fluoro-5-[(8aS)-hexahydropyrrolo[1,2-a]pyrazin-2(1H)-ylcarbonyl]benzenesulfonamide], the IC50 was determined as 9 µM. The result for `O=C(N[C@@H]1C[C@H]1c1ccccc1)c1cccc(S(=O)(=O)N2CCN3CCC[C@H]3C2)c1` [Example 60, 3-[(8aS)-hexahydropyrrolo[1,2-a]pyrazin-2(1H)-ylsulfonyl]-N-[(1R,2S)-2-phenylcyclopropyl]benzamide] reads 5 µM. On to `O=C(c1cccc(S(=O)(=O)N[C@@H]2C[C@H]2c2ccccc2)c1)N1CCN2CCC[C@H]2C1` [Example 61, 3-[(8aS)-hexahydropyrrolo[1,2-a]pyrazin-2(1H)-ylcarbonyl]-N-[(1R,2S)-2-phenylcyclopropyl]benzenesulfonamide], for which the IC50 is above 10 µM. The result for `O=C(c1ccc(S(=O)(=O)N[C@H](CO)c2ccccc2)cc1)N1CCN2CCC[C@@H]2C1` [Example 62, 4-[(8aR)-hexahydropyrrolo[1,2-a]pyrazin-2(1H)-ylcarbonyl]-N-[(1S)-2-hydroxy-1-phenylethyl]benzenesulfonamide] reads above 10 µM; that for `O=C(c1cc(S(=O)(=O)N2CCc3ccccc32)c(F)cc1Cl)N1CCN2CCC[C@@H]2C1` [Example 63, (8aR)-2-[2-chloro-5-(2,3-dihydro-1H-indol-1-ylsulfonyl)-4-fluorobenzoyl]octahydropyrrolo[1,2-a]pyrazine], above 10 µM; that for `O=C(c1ccc(F)c(NS(=O)(=O)c2cccc(C(F)(F)F)c2)c1)N1CCN2CCC[C@@H]2C1` [Example 65, N-{2-fluoro-5-[(8aR)-hexahydropyrrolo[1,2-a]pyrazin-2(1H)-ylcarbonyl]phenyl}-3-(trifluoromethyl)benzenesulfonamide], 1.84 µM.

For the compound `CN(c1ccccc1F)S(=O)(=O)c1cc(C(=O)N2CCN3CCC[C@@H]3C2)c(Cl)cc1F` [Example 66, 4-chloro-2-fluoro-N-(2-fluorophenyl)-5-[(8aR)-hexahydropyrrolo[1,2-a]pyrazin-2(1H)-ylcarbonyl]-N-methylbenzenesulfonamide], the half-inhibitory concentration (IC50) worked out at 5.9 µM.

For the compound `O=C(c1cc(S(=O)(=O)N2CCN(c3ccc(F)cc3)CC2)c(F)cc1Cl)N1CCN2CCC[C@@H]2C1` [Example 67, (8aR)-2-(2-chloro-4-fluoro-5-{[4-(4-fluorophenyl)piperazin-1-yl]sulfonyl}benzoyl)octahydropyrrolo[1,2-a]pyrazine], the concentration for half-maximal inhibition (IC50) stood at 3.18 µM. With `O=C(Nc1cc(C(=O)N2CCN3CCC[C@@H]3C2)ccc1Cl)c1ccc(F)cc1` [Example 68, N-{2-chloro-5-[(8aR)-hexahydropyrrolo[1,2-a]pyrazin-2(1H)-ylcarbonyl]phenyl}-4-fluorobenzamide], the IC50 worked out at 10.9 µM. `CN(c1cccc(C(=O)N2CCN3CCC[C@@H]3C2)c1)S(=O)(=O)c1cccc(C(F)(F)F)c1` [Example 69, N-{3-[(8aR)-hexahydropyrrolo[1,2-a]pyrazin-2(1H)-ylcarbonyl]phenyl}-N-methyl-3-(trifluoromethyl)benzenesulfonamide]: the IC50 is above 10 µM. The result for `O=C(c1cc(S(=O)(=O)NCC(c2ccccc2)c2ccccc2)c(F)cc1Cl)N1CCN2CCC[C@@H]2C1` [Example 70, 4-chloro-N-(2,2-diphenylethyl)-2-fluoro-5-[(8aR)-hexahydropyrrolo[1,2-a]pyrazin-2(1H)-ylcarbonyl]benzenesulfonamide] reads 7.2 µM; that for `Cc1cc(C(=O)N2CCN3CCC[C@@H]3C2)ccc1NC(=O)c1ccc2ccccc2c1` [Example 72, N-{4-[(8aR)-hexahydropyrrolo[1,2-a]pyrazin-2(1H)-ylcarbonyl]-2-methylphenyl}-2-naphthamide], above 10 µM. The result for `O=C(Nc1cc(C(=O)N2CCN3CCC[C@@H]3C2)ccc1F)c1cc(Cl)cc(Cl)c1` [Example 73, 3,5-dichloro-N-{2-fluoro-5-[(8aR)-hexahydropyrrolo[1,2-a]pyrazin-2(1H)-ylcarbonyl]phenyl}benzamide] reads 1.8 µM; that for `O=C(c1cc(S(=O)(=O)NC(c2ccccc2)c2ccccc2)c(F)cc1Cl)N1CCN2CCC[C@@H]2C1` [Example 74, N-benzhydryl-4-chloro-2-fluoro-5-[(8aR)-hexahydropyrrolo[1,2-a]pyrazin-2(1H)-ylcarbonyl]benzenesulfonamide], 2 µM.

With `O=C(Nc1ccc(C(=O)N2CCN3CCC[C@@H]3C2)cc1Cl)C(c1ccccc1)c1ccccc1` [Example 75, N-{2-chloro-4-[(8aR)-hexahydropyrrolo[1,2-a]pyrazin-2(1H)-ylcarbonyl]phenyl}-2,2-diphenylacetamide], the IC50 was determined as 6.5 µM. The result for `O=C(Nc1ccc(C(=O)N2CCN3CCC[C@@H]3C2)cc1Cl)c1ccc2ccccc2c1` [Example 76, N-{2-chloro-4-[(8aR)-hexahydropyrrolo[1,2-a]pyrazin-2(1H)-ylcarbonyl]phenyl}-2-naphthamide] reads 6.4 µM; that for `CC(C)N(c1cccc(C(=O)N2CCN3CCC[C@@H]3C2)c1)S(=O)(=O)c1cccc(C(F)(F)F)c1` [Example 77, N-{3-[(8aR)-hexahydropyrrolo[1,2-a]pyrazin-2(1H)-ylcarbonyl]phenyl}-N-isopropyl-3-(trifluoromethyl)benzenesulfonamide], above 10 µM. The result for `O=C(Nc1cc(C(=O)N2CCN3CCC[C@@H]3C2)ccc1Cl)C(c1ccccc1)c1ccccc1` [Example 78, N-{2-chloro-5-[(8aR)-hexahydropyrrolo[1,2-a]pyrazin-2(1H)-ylcarbonyl]phenyl}-2,2-diphenylacetamide] reads above 10 µM; that for `O=C(c1ccc(Cl)c(NC(c2ccccc2)c2ccccc2)c1)N1CCN2CCC[C@@H]2C1` [Example 79, N-benzhydryl-N-{2-chloro-5-[(8aR)-hexahydropyrrolo[1,2-a]pyrazin-2(1H)-ylcarbonyl]phenyl}amine], 8.5 µM. The result for `O=C(c1cccc(NC(c2ccccc2)c2ccccc2)c1)N1CCN2CCC[C@@H]2C1` [Example 80, N-benzhydryl-N-{3-[(8aR)-hexahydropyrrolo[1,2-a]pyrazin-2(1H)-ylcarbonyl]phenyl}amine] reads 2 µM; that for `O=C(N[C@H](CO)c1ccccc1)c1cccc(S(=O)(=O)N2CCN3CCC[C@@H]3C2)c1` [Example 81, 3-[(8aR)-hexahydropyrrolo[1,2-a]pyrazin-2(1H)-ylsulfonyl]-N-[(1S)-2-hydroxy-1-phenylethyl]benzamide], above 10 µM; that for `O=C(NC(c1ccccc1)c1ccccc1)c1cc(S(=O)(=O)N2CCN3CCC[C@H]3C2)c(F)cc1Cl` [Example 82, N-benzhydryl-2-chloro-4-fluoro-5-[(8aS)-hexahydropyrrolo[1,2-a]pyrazin-2(1H)-ylsulfonyl]benzamide], 2.6 µM.
